Reference: the supplement of paper PMC10307832

Assays:
Assay in all cases: relative viability (nuclei count vs DMSO), 5 days (fraction); higher = more cells survive
[1] = compound: O=S(=O)(c1ccccc1)N(CC(F)(F)F)c1ccc(C(O)(C(F)(F)F)C(F)(F)F)cc1
Outline: (§1)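 A plate was accepted only when its control CV was below 25% and the cells had doubled at least once. Viability is defined from nuclear counts as treated wells divided by vehicle wells, with the median taken across plates. That median covers lung cancer cell lines grown in 1536-well plates, dosed by pinning at five √10-spaced library-drug concentrations, and counted in MetaXpress from 4× Hoechst images after 5 days.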

RO-3306 = compound: C1=CC2=C(C=CC(=C2)C=C3C(=O)NC(=NCC4=CC=CS4)S3)N=C1 [RO-3306]
Outline: as §1

Foretinib = compound: COc1cc2c(Oc3ccc(NC(=O)C4(C(=O)Nc5ccc(F)cc5)CC4)cc3F)ccnc2cc1OCCCN1CCOCC1 [Foretinib] (anchor plate); conditions: 0.25 µM
Outline: as §1

Cell Line | relative viability ([1]; 0.8 µM) | relative viability ([1]; 2.53 µM) | relative viability ([1]; 8 µM) | relative viability (RO-3306; 0.01 µM) | relative viability (RO-3306; 0.03162 µM) | relative viability (RO-3306; 0.1 µM) | relative viability (RO-3306; 0.3162 µM) | relative viability (RO-3306; 1 µM) | relative viability (Foretinib)
NCI-H522 | 1.06 | 0.954 | 1.15 | 1.09 | 0.867 | 0.827 | 0.875 | 0.962 | –
NCI-H596 | 0.952 | 0.942 | 0.908 | 0.947 | 0.807 | 0.871 | 1.03 | 0.94 | 0.881
NCI-H647 | 1.14 | 0.849 | 0.877 | 0.881 | 0.841 | 0.928 | 1.07 | 0.864 | 1.17
NCI-H650 | 0.946 | 0.814 | 0.989 | 0.834 | 0.803 | 0.938 | 0.992 | 0.945 | 1.02
NCI-H661 | 1.04 | 0.982 | 0.971 | 0.995 | 0.951 | 0.978 | 0.963 | 1.06 | 0.971
NCI-H727 | 1.08 | 0.702 | 0.898 | 0.892 | 0.704 | 1.01 | 1 | 1.2 | 0.892
NCI-H838 | 1.12 | 0.962 | 1.02 | 1.03 | 0.908 | 0.992 | 1.07 | 0.95 | 1.03
NCI-H1299 | 1.01 | 1.02 | 0.952 | 1.06 | 1 | 1.03 | 1.04 | 1.09 | 1.06
NCI-H1355 | 1.05 | 0.918 | 0.884 | 1.12 | 0.907 | 1.01 | 1.01 | 0.914 | 0.973
NCI-H1395 | 0.867 | 0.894 | 0.914 | 0.895 | 0.869 | 0.729 | 0.887 | 0.707 | 1
NCI-H1437 | 0.95 | 0.877 | 0.849 | 1.03 | 0.942 | 0.926 | 1.03 | 1.08 | 1.24
NCI-H1563 | 0.95 | 1.02 | 0.947 | 0.966 | 0.887 | 0.936 | 0.993 | 0.953 | 0.93
NCI-H1623 | 0.928 | 0.836 | 0.856 | 0.99 | 0.909 | 0.958 | 1.08 | 0.844 | 0.899
NCI-H1648 | 0.793 | 0.58 | 0.518 | 0.863 | – | 0.877 | 0.858 | 1.01 | –
NCI-H1650 | 0.929 | 0.897 | 0.936 | 0.885 | 0.729 | 0.795 | 0.881 | 0.728 | 1.22
NCI-H1651 | 1.05 | 0.965 | 0.944 | 0.978 | 0.875 | 0.994 | 1.03 | 0.934 | 0.763
NCI-H1666 | 0.939 | 0.925 | 0.827 | 0.962 | 0.904 | 0.938 | 0.941 | 0.885 | 0.977
NCI-H1703 | 0.846 | 0.776 | 0.696 | 1.17 | 0.837 | 0.969 | 0.751 | 0.906 | 0.347
NCI-H1734 | 1.21 | 1.01 | 0.887 | 1.01 | 0.808 | 0.912 | 0.991 | 0.9 | 0.84

Cell Line | relative viability ([1]; 0.8 µM) | relative viability ([1]; 2.53 µM) | relative viability ([1]; 8 µM) | relative viability (RO-3306; 0.01 µM) | relative viability (RO-3306; 0.03162 µM) | relative viability (RO-3306; 0.1 µM) | relative viability (RO-3306; 0.3162 µM) | relative viability (RO-3306; 1 µM) | relative viability (Foretinib)
NCI-H1755 | 1.02 | 0.982 | 0.928 | 1.02 | 1 | 0.98 | 0.985 | 1.02 | 0.915
NCI-H1792 | 0.79 | 0.724 | 0.858 | 0.813 | – | 0.824 | 0.908 | 0.782 | –
NCI-H1793 | 0.758 | 0.747 | 0.785 | 1.09 | 0.694 | 0.865 | 0.993 | 1.12 | 0.741
NCI-H1915 | 1.06 | 0.98 | 1.08 | 1.05 | 0.944 | 0.98 | 0.992 | 0.536 | 1.1
NCI-H1944 | 1.1 | 0.955 | 1.07 | 1.08 | 0.911 | 0.917 | 1.01 | 0.929 | 0.895
NCI-H1975 | 1.09 | 0.943 | 0.95 | 1.09 | 0.804 | 0.869 | 0.997 | 0.91 | 0.958
NCI-H1993 | 0.987 | 0.831 | 0.711 | 0.808 | 0.719 | 0.893 | 0.849 | 0.941 | 0.782
NCI-H2009 | 0.977 | 0.862 | 0.891 | 1.03 | 0.955 | 0.983 | 1.02 | 1 | 1.22
NCI-H2023 | 1.11 | 0.885 | 0.766 | 1.18 | 0.803 | 0.901 | 1 | 0.858 | 0.893
NCI-H2085 | 0.967 | 0.908 | 0.929 | 0.985 | 0.936 | 0.98 | 1.05 | 0.995 | 1.01
NCI-H2087 | 1.11 | 0.993 | 0.909 | 1.11 | 0.918 | 1.1 | 1.04 | 0.991 | 1.06
NCI-H2126 | 1.1 | 1.01 | 1.02 | 1.01 | 0.916 | 0.988 | 1.03 | 0.938 | 1.2
NCI-H2170 | 1.08 | 0.964 | 0.913 | 1.06 | 0.946 | 0.952 | 1.01 | 0.991 | 1.01
NCI-H2228 | 1.08 | 0.962 | 0.937 | 1.07 | 0.96 | 1.09 | 1 | 0.696 | 0.886
NCI-H2342 | 1.36 | 0.968 | 0.938 | 1.02 | 0.865 | 0.941 | 0.914 | 0.932 | 1.05
NCI-H2347 | 1.08 | 1.01 | 1.04 | 1.19 | 0.882 | 1.05 | 1 | 1 | 0.902
NCI-H2405 | 1.03 | 0.987 | 0.945 | 1 | 0.949 | 0.995 | 1.02 | 0.906 | 1.01
NCI-H3122 | 0.99 | 0.977 | 1.08 | 1.05 | 0.99 | 1.01 | 1.05 | 1.04 | 0.93
